Source: BigSolDB 2.1

CCOC(=O)[C@@H](N)CCc1ccccc1.Cl
solubility (mole fraction)
Details	283.15 K	288.15 K	293.15 K	298.15 K	303.15 K	313.15 K	323.15 K
in 1,4-dioxane	–	0.00221	0.00266	–	0.00381	0.00845	0.0142
in 2-butanone	0.00022	–	0.00031	–	0.0004	0.00073	0.0013
in acetone	0.00068	–	0.00117	–	0.00182	0.00297	0.00505
in dichloromethane	0.0172	0.0233	0.0303	0.0386	0.0489	–	–
in ethanol	0.031	–	0.0393	–	0.0505	0.0666	0.0867
in isobutanol	0.0101	–	0.014	–	0.0203	0.0311	0.0472
in isopropanol	0.00726	–	0.0096	–	0.0135	0.0192	0.0286
in methyl acetate	4e-05	–	5e-05	–	0.00012	0.00024	0.00034
in n-butanol	0.0128	–	0.0163	–	0.022	0.0253	0.0277
in n-pentanol	0.0161	–	0.0215	–	0.0294	0.0427	0.0595
in n-propanol	0.019	–	0.0262	–	0.0353	0.0487	0.0679
in sec-butanol	0.00416	–	0.00614	–	0.00846	0.013	0.0257
